Species: Rattus norvegicus
Assay: Open TG-GATES - Regimen: Single
Type: toxicity, organism-based, Sprague-Dawley
Design: regimen Single, gender Male, age 6 weeks
Settings: in vivo, po, 10 mg/kg, route gavage, dose level Low; for APTT / Bas / Eos / Fbg / Hb / Ht / Lym / MCH / MCHC / MCV / Mono / Neu / PT / Plat / RBC / Ret / WBC: tissue Blood; for KIDNEY_L / KIDNEY_R / KIDNEY_TOTAL: tissue Kidney; for LIVER: tissue Liver; for A/G / ALP / ALT / AST / BUN / CRE / Ca / Cl / DBIL / GLC / IP / K / LDH / Na / PL / RALB / TBIL / TC / TG / TP / gamma-GTP: tissue Plasma

CC1=C(/C=C/C(C)=C/C=C/C(C)=C/CO)C(C)(C)CCC1 [RETINOL]
TERMINAL_BW (3 h): 201.8 g
APTT (3 h): 21.9 s
Bas (3 h): 0%
Eos (3 h): 0.8%
Fbg (3 h): 307.4 mg/dL
Hb (3 h): 13.1 g/dL
Ht (3 h): 37.7%
Lym (3 h): 81.4%
MCH (3 h): 21.5 pg
MCHC (3 h): 34.6%
MCV (3 h): 62.2 fL
Mono (3 h): 2.6%
Neu (3 h): 14.8%
PT (3 h): 15.9 s
Plat (3 h): 124.2 x10_4/uL
RBC (3 h): 606.4 x10_4/ul
Ret (3 h): 8.8%
WBC (3 h): 95.9 x10_2/uL
KIDNEY_L (3 h): 0.9 g
KIDNEY_R (3 h): 0.9 g
KIDNEY_TOTAL (3 h): 1.8 g
LIVER (3 h): 9.3 g
A/G (3 h): 1.3
ALP (3 h): 1940 IU/L
ALT (3 h): 41.2 IU/L
AST (3 h): 75.2 IU/L
BUN (3 h): 13.4 mg/dL
CRE (3 h): 0.1 mg/dL
Ca (3 h): 10.8 mg/dL
Cl (3 h): 106.6 meq/L
DBIL (3 h): 0 mg/dL
GLC (3 h): 171.6 mg/dL
IP (3 h): 8.6 mg/dL
K (3 h): 4.1 meq/L
LDH (3 h): 253.6 IU/L
Na (3 h): 141.6 meq/L
PL (3 h): 160.6 mg/dL
RALB (3 h): 3.2 g/dL
TBIL (3 h): 0.006 mg/dL
TC (3 h): 81.2 mg/dL
TG (3 h): 123.4 mg/dL
TP (3 h): 5.6 g/dL
gamma-GTP (3 h): 2.2 IU/L
TERMINAL_BW (6 h): 200 g
APTT (6 h): 21 s
Bas (6 h): 0%
Eos (6 h): 1%
Fbg (6 h): 312 mg/dL
Hb (6 h): 13.5 g/dL
Ht (6 h): 39.4%
Lym (6 h): 80.4%
MCH (6 h): 21.4 pg
MCHC (6 h): 34.3%
MCV (6 h): 62.3 fL
Mono (6 h): 2.6%
Neu (6 h): 15.4%
PT (6 h): 15.6 s
Plat (6 h): 119.1 x10_4/uL
RBC (6 h): 632.2 x10_4/ul
Ret (6 h): 8.1%
WBC (6 h): 81.2 x10_2/uL
KIDNEY_L (6 h): 0.9 g
KIDNEY_R (6 h): 0.9 g
KIDNEY_TOTAL (6 h): 1.9 g
LIVER (6 h): 8.6 g
A/G (6 h): 1.3
ALP (6 h): 1760 IU/L
ALT (6 h): 35.8 IU/L
AST (6 h): 69.2 IU/L
BUN (6 h): 9.4 mg/dL
CRE (6 h): 0.1 mg/dL
Ca (6 h): 11 mg/dL
Cl (6 h): 107.4 meq/L
DBIL (6 h): 0.008 mg/dL
GLC (6 h): 180 mg/dL
IP (6 h): 10.3 mg/dL
K (6 h): 4.3 meq/L
LDH (6 h): 223 IU/L
Na (6 h): 142.8 meq/L
PL (6 h): 143.8 mg/dL
RALB (6 h): 3.1 g/dL
TBIL (6 h): 0.016 mg/dL
TC (6 h): 74.4 mg/dL
TG (6 h): 98.4 mg/dL
TP (6 h): 5.4 g/dL
gamma-GTP (6 h): 0.8 IU/L
TERMINAL_BW (9 h): 196.8 g
APTT (9 h): 21.8 s
Bas (9 h): 0%
Eos (9 h): 0.6%
Fbg (9 h): 296.8 mg/dL
Hb (9 h): 13.2 g/dL
Ht (9 h): 38.3%
Lym (9 h): 78%
MCH (9 h): 21.6 pg
MCHC (9 h): 34.4%
MCV (9 h): 62.9 fL
Mono (9 h): 2.4%
Neu (9 h): 18.4%
PT (9 h): 15.6 s
Plat (9 h): 128.6 x10_4/uL
RBC (9 h): 610.2 x10_4/ul
Ret (9 h): 7.6%
WBC (9 h): 92.3 x10_2/uL
KIDNEY_L (9 h): 0.9 g
KIDNEY_R (9 h): 0.9 g
KIDNEY_TOTAL (9 h): 1.8 g
LIVER (9 h): 7.8 g
A/G (9 h): 1.3
ALP (9 h): 1939.6 IU/L
ALT (9 h): 34.8 IU/L
AST (9 h): 70.6 IU/L
BUN (9 h): 9.6 mg/dL
CRE (9 h): 0.1 mg/dL
Ca (9 h): 10.9 mg/dL
Cl (9 h): 107.4 meq/L
DBIL (9 h): 0.004 mg/dL
GLC (9 h): 187 mg/dL
IP (9 h): 10.6 mg/dL
K (9 h): 4 meq/L
LDH (9 h): 242.8 IU/L
Na (9 h): 141.4 meq/L
PL (9 h): 127.4 mg/dL
RALB (9 h): 3 g/dL
TBIL (9 h): 0.012 mg/dL
TC (9 h): 69.2 mg/dL
TG (9 h): 50.2 mg/dL
TP (9 h): 5.3 g/dL
gamma-GTP (9 h): 2.8 IU/L
TERMINAL_BW (24 h): 208.4 g
APTT (24 h): 21.5 s
Bas (24 h): 0%
Eos (24 h): 1%
Fbg (24 h): 273.4 mg/dL
Hb (24 h): 13.2 g/dL
Ht (24 h): 38.4%
Lym (24 h): 80.2%
MCH (24 h): 21.4 pg
MCHC (24 h): 34.5%
MCV (24 h): 62.2 fL
Mono (24 h): 3.2%
Neu (24 h): 15%
PT (24 h): 16.2 s
Plat (24 h): 123.1 x10_4/uL
RBC (24 h): 618 x10_4/ul
Ret (24 h): 7.5%
WBC (24 h): 81 x10_2/uL
KIDNEY_L (24 h): 1 g
KIDNEY_R (24 h): 1 g
KIDNEY_TOTAL (24 h): 2 g
LIVER (24 h): 9.8 g
A/G (24 h): 1.4
ALP (24 h): 1455.4 IU/L
ALT (24 h): 44.6 IU/L
AST (24 h): 78.4 IU/L
BUN (24 h): 16.8 mg/dL
CRE (24 h): 0.2 mg/dL
Ca (24 h): 10.6 mg/dL
Cl (24 h): 106.8 meq/L
DBIL (24 h): 0.002 mg/dL
GLC (24 h): 187.4 mg/dL
IP (24 h): 6.9 mg/dL
K (24 h): 4.5 meq/L
LDH (24 h): 318.8 IU/L
Na (24 h): 141.6 meq/L
PL (24 h): 135.2 mg/dL
RALB (24 h): 3.1 g/dL
TBIL (24 h): 0.002 mg/dL
TC (24 h): 65 mg/dL
TG (24 h): 114.6 mg/dL
TP (24 h): 5.4 g/dL
gamma-GTP (24 h): 1.6 IU/L
